Results as given in US20040048821A1, “Enhancement of drug cytotoxicity in tumor cells containing mutant Rb gene” (Cold Spring Harbor Laboratory, priority 1997, published 2004).

Experiments:
Assay type in all cases: cell-based, human
[1] = test system: BT-549 breast carcinoma cells; assay: Drug cytotoxicity (adriamycin) in BT-549 breast carcinoma cells; conditions: BT549 cells containing a control vector
Protocol: (§1) A control vector, E1A or the E1A mutants (ΔN or ΔCR2) were introduced into tumor cells via retroviral mediated gene transfer and analyzed for drug cytoxicity within a few days of gene transfer. Cell populations were treated with adriamycin or tumor necrosis factor a (or both).

Snos2 osteosarcoma cells = assay: Drug cytotoxicity (adriamycin, TNF) in Snos2 osteosarcoma cells; conditions: Snos2 cells with control vector, doses tested
Protocol: as §1

U2OS osteosarcoma cells = assay: Drug cytotoxicity (adriamycin, TNF) in U2OS osteosarcoma cells; conditions: U2OS cells with control vector, doses tested
Protocol: as §1

## COc1cccc2c1C(=O)c1c(O)c3c(c(O)c1C2=O)C[C@@](O)(C(=O)CO)C[C@@H]3O[C@H]1C[C@H](N)[C@H](O)[C@H](C)O1 [adriamycin]
[1]
  apoptosis following drug treatment: unable to induce apoptosis
Snos2 osteosarcoma cells
  apoptosis following drug treatment: do not undergo apoptosis
U2OS osteosarcoma cells
  apoptosis / cell death following drug treatment: do not undergo apoptosis
